Assay results published in ChEMBL document CHEMBL3817748, “Identification of novel peptoid agonists of fibroblast growth factor receptor using microarray-based screening” (Medchemcomm, 2016).
The source made the active and inactive calls. The calls are words filed in the database; no cut-off is given here. *1 amine or outer side, *2 acyl side, *3 side chain or, on linkers, in order; H or OH if unused. Where a SMILES comes first, the peptide text is derived from it. [ ]: non-standard residue; d: D form. ξ: configuration not given here. Gly(N-(CH2)3N-pyrrolidone) = O=C(O)CNCCCN1CCCC1=O; Gly(N-CH2CH2C6H4-4Cl) = O=C(O)CNCCc1ccc(Cl)cc1; X1 = O=C(CN(Cc1cccc(C(F)(F)F)c1)[*:1])[*:2]; X3 = CC(c1ccccc1)N(CC(=O)[*:2])[*:1]; Nrpe = C[C@@H](NCC(=O)O)c1ccccc1; X2 = O=C(CN(CC1CCCO1)[*:1])[*:2]; NFurfurylGly = O=C(O)CNCc1ccco1; Gly(N-cPent) = O=C(O)CNC1CCCC1; NAllylGly = C=CCNCC(=O)O; Nphe = O=C(O)CNCc1ccccc1; Nlys = NCCCCNCC(=O)O; ξC = NC(CS)C(=O)O

Columns and labels:
Homo sapiens [1] = organism: Homo sapiens; assay: Binding affinity to Fc-tagged FGFR1alpha (unknown origin) at 100 uM after 1 hr by Texas-red labeled anti-Fc detection based microarray assay
Homo sapiens [2] = organism: Homo sapiens; assay: Binding affinity to Fc-tagged FGFR1alpha (unknown origin) at 50 uM after 1 hr by Texas-red labeled anti-Fc detection based microarray assay
Homo sapiens [3] = organism: Homo sapiens; assay: Binding affinity to Fc-tagged FGFR1alpha (unknown origin) at 25 uM after 1 hr by Texas-red labeled anti-Fc detection based microarray assay
Homo sapiens [4] = organism: Homo sapiens; assay: Binding affinity to Fc-tagged FGFR1alpha (unknown origin) at 150 uM by Texas-red labeled anti-Fc detection based fluorescence microscopic analysis
[5] = target: Fibroblast growth factor receptor 1 (Homo sapiens) (UniProt P11362); assay: Agonist activity at FGFR1 in human MCF7 cells assessed as increase in Akt phosphorylation at 15 uM after 10 mins by Western blot analysis; assay type: cell-based
MCF7 = assay: Agonist activity at FGFR1alpha in human MCF7 cells assessed as increase in ERK phosphorylation at 15 uM after 10 mins by Western blot analysis; assay type: cell-based
[6] = target: Fibroblast growth factor receptor 2 (Homo sapiens) (UniProt P21802); assay: Agonist activity at FGFR2 in human MDA231 cells assessed as increase in Akt phosphorylation at 15 uM after 10 mins by Western blot analysis; assay type: cell-based
[7] = target: Fibroblast growth factor receptor 2 (Homo sapiens) (UniProt P21802); assay: Agonist activity at FGFR2 in human MDA231 cells assessed as increase in ERK phosphorylation at 15 uM after 10 mins by Western blot analysis; assay type: cell-based
[8] = target: Fibroblast growth factor receptor 1 (Mus musculus) (UniProt P16092); assay: Agonist activity at FGFR1 in mouse NIH-3T3 cells assessed as increase in Akt phosphorylation at 15 uM after 10 mins by Western blot analysis; assay type: cell-based; settings: NIH3T3
[9] = target: Fibroblast growth factor receptor 1 (Mus musculus) (UniProt P16092); assay: Agonist activity at FGFR1 in mouse NIH-3T3 cells assessed as increase in ERK phosphorylation at 15 uM after 10 mins by Western blot analysis; assay type: cell-based; settings: NIH3T3
Homo sapiens [10] = organism: Homo sapiens; assay: Binding affinity to Fc-tagged FGFR1alpha (unknown origin) uM after 1 hr by FITC-labeled anti-Fc detection based microarray assay

Fibroblast growth factor receptor 1 (Mus musculus), sequence (P16092 whole entry): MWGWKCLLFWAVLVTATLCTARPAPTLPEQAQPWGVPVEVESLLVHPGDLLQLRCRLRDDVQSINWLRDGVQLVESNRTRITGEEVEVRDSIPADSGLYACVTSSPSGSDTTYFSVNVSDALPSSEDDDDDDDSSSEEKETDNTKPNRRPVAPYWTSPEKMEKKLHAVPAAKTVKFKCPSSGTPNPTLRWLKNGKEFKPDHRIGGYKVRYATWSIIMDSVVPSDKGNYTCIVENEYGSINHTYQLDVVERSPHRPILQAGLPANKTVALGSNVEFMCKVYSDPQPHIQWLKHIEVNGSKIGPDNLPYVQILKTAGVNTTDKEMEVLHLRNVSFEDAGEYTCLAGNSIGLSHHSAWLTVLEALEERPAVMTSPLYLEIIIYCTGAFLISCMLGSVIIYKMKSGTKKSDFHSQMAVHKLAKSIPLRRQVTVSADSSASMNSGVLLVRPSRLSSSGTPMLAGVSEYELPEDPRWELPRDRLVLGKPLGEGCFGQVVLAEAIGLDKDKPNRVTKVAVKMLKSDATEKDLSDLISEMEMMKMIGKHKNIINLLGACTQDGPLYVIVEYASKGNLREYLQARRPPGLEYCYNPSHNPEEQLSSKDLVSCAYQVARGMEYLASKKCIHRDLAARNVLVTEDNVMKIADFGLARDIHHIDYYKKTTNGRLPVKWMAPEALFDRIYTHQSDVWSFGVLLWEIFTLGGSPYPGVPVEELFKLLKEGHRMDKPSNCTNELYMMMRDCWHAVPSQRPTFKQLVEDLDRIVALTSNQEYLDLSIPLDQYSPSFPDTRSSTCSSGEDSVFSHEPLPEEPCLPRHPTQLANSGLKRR
Fibroblast growth factor receptor 2 (Homo sapiens), sequence (P21802 22-821 limits assumed): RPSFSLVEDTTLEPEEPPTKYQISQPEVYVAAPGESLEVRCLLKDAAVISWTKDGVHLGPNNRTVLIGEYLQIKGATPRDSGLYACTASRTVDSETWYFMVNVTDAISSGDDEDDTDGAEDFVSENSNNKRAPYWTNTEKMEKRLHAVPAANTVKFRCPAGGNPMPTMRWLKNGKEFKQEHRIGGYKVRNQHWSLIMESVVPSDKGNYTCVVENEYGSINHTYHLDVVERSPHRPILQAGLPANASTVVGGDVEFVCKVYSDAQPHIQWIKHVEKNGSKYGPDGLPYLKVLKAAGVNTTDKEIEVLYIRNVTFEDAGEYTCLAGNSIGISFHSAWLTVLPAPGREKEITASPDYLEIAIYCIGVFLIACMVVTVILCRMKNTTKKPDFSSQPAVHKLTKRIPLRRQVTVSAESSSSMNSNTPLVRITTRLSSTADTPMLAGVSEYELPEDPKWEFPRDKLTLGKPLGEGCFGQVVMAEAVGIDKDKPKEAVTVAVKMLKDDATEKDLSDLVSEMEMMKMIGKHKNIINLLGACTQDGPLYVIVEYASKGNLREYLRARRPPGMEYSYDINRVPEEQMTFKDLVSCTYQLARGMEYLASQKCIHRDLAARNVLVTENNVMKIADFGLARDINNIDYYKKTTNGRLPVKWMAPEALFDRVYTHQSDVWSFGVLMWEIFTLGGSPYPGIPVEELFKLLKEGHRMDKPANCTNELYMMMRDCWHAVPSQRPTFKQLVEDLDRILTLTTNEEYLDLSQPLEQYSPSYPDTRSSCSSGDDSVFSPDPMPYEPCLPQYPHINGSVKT
Fibroblast growth factor receptor 1 (Homo sapiens), sequence (P11362 22-822 limits assumed): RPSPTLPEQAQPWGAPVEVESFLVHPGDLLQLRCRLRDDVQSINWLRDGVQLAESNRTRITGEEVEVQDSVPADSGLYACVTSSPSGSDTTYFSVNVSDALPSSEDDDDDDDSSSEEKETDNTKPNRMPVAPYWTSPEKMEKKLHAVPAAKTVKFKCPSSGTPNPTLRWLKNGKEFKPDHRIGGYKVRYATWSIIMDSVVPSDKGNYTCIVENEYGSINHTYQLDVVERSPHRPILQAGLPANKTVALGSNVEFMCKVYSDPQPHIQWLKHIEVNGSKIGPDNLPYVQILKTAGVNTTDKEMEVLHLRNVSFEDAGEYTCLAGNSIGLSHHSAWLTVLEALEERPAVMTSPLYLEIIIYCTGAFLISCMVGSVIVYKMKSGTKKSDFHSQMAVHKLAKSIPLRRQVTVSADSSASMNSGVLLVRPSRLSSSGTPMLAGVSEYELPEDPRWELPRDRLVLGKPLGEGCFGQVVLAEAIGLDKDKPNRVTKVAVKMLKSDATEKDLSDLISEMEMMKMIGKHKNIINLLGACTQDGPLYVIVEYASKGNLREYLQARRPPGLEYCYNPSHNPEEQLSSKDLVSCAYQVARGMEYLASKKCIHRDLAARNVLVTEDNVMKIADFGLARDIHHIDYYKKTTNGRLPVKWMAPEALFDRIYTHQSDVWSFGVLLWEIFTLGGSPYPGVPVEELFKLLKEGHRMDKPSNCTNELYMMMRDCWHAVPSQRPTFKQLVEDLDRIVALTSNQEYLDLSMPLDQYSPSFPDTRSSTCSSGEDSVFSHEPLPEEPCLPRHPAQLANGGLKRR

For `C=CCN(CC(=O)N(CC(=O)N(CCCCN)CC(=O)N(CCCCN)CC(=O)N[C@@H](CS)C(N)=O)[C@H](C)c1ccccc1)C(=O)CN(Cc1ccco1)C(=O)CN(C(=O)CN(Cc1cccc(C(F)(F)F)c1)C(=O)CNCc1ccccc1)C1CCCC1` (H-[Nphe][X1][Gly(N-cPent)][NFurfurylGly][NAllylGly][Nrpe][Nlys][Nlys]C-NH2), the Activity (Homo sapiens [1]) was “Active”, the Activity (Homo sapiens [2]) was “Active” and the Activity (Homo sapiens [3]) was “Active”. The Activity (Homo sapiens [4]) was “Active”, the Activity [5] was “Active” and the Activity (MCF7) was “Active”. For the same molecule, the Activity [6] was “Active”, the Activity [7] was “Active” and the Activity [8] was “Active”. For the same molecule, the Activity [9] was “Active” and the Activity (Homo sapiens [10]) was “Active”.

In the case of `C=CCN(CC(=O)N(CC(=O)N(CCCCN)CC(=O)N(CCCCN)CC(=O)N[C@@H](CS)C(N)=O)Cc1ccco1)C(=O)CN(Cc1ccco1)C(=O)CN(CC1CCCO1)C(=O)CN(C(=O)CNCCc1ccc(Cl)cc1)C1CCCC1` (stereo partly specified) (H-[Gly(N-CH2CH2C6H4-4Cl)][Gly(N-cPent)][X2][NFurfurylGly][NAllylGly][NFurfurylGly][Nlys][Nlys]C-NH2), the Activity (Homo sapiens [1]) is reported as “Active”, the Activity (Homo sapiens [2]) is reported as “Active” and the Activity (Homo sapiens [3]) is reported as “Active”. For the same molecule, the Activity [5] was “inactive”, the Activity (MCF7) was “inactive” and the Activity [6] was “inactive”. For the same molecule, the Activity [7] was “inactive”, the Activity [8] was “inactive” and the Activity [9] was “inactive”. The Activity (Homo sapiens [10]) was “Active”.

With `C=CCN(CC(=O)N(CC(=O)N(CCCN1CCCC1=O)CC(=O)N(CCCCN)CC(=O)N(CCCCN)CC(=O)N[C@@H](CS)C(N)=O)CC1CCCO1)C(=O)CN(C(=O)CN(Cc1cccc(C(F)(F)F)c1)C(=O)CNCCCN1CCCC1=O)[C@H](C)c1ccccc1` (stereo partly specified) (H-[Gly(N-(CH2)3N-pyrrolidone)][X1][Nrpe][NAllylGly][X2][Gly(N-(CH2)3N-pyrrolidone)][Nlys][Nlys]C-NH2) the Activity (Homo sapiens [1]) was “Active”, the Activity (Homo sapiens [2]) was “Active” and the Activity (Homo sapiens [3]) was “Active”. For the same molecule, the Activity (Homo sapiens [4]) was “Active”, the Activity [5] was “Active” and the Activity (MCF7) was “Active”. For the same molecule, the Activity [6] was “Active”, the Activity [7] was “Active” and the Activity [8] was “Active”. For the same molecule, the Activity [9] was “Active” and the Activity (Homo sapiens [10]) was “Active”.

In the case of `C=CCN(CC(=O)N(CC(=O)N(CC(=O)N(CC(=O)N(CCCCN)CC(=O)N(CCCCN)CC(=O)NC(CS)C(N)=O)C1CCCC1)Cc1ccco1)Cc1cccc(C(F)(F)F)c1)C(=O)CN(C(=O)CNCCc1ccc(Cl)cc1)C(C)c1ccccc1` (stereo unspecified) (H-[Gly(N-CH2CH2C6H4-4Cl)][X3][NAllylGly][X1][NFurfurylGly][Gly(N-cPent)][Nlys][Nlys][ξC]-NH2), the Activity (Homo sapiens [1]) is reported as “inactive” and the Activity (Homo sapiens [2]) is reported as “inactive”.

With `CC(NCC(=O)N(CC(=O)N(CC(=O)N(CC(=O)N(CC(=O)N(CC(=O)N(CCCCN)CC(=O)N(CCCCN)CC(=O)NC(CS)C(N)=O)Cc1cccc(C(F)(F)F)c1)Cc1cccc(C(F)(F)F)c1)CC1CCCO1)Cc1ccccc1)C1CCCC1)c1ccccc1` (stereo unspecified) the Activity (Homo sapiens [1]) was “inactive” and the Activity (Homo sapiens [2]) was “inactive”.

`C=CCN(CC(=O)N(CCCCN)CC(=O)N(CCCCN)CC(=O)N[C@@H](CS)C(N)=O)C(=O)CN(C(=O)CN(Cc1ccccc1)C(=O)CN(C(=O)CN(Cc1ccccc1)C(=O)CNC1CCCC1)C1CCCC1)[C@H](C)c1ccccc1` (H-[Gly(N-cPent)][Nphe][Gly(N-cPent)][Nphe][Nrpe][NAllylGly][Nlys][Nlys]C-NH2) was tested, and the Activity (Homo sapiens [1]) was “Active”, the Activity (Homo sapiens [2]) was “Active” and the Activity (Homo sapiens [3]) was “Active”. For the same molecule, the Activity [5] was “Active”, the Activity (MCF7) was “Active” and the Activity [6] was “Active”. For the same molecule, the Activity [7] was “Active”, the Activity [8] was “Active” and the Activity [9] was “Active”. The Activity (Homo sapiens [10]) was “Active”.
